Data from patent US11149020B2, “MAP kinase modulators and uses thereof” (The Trustees of Columbia University in the City of New York, priority 2013, dated 2021).
Where two headings read alike, the source gives them in different places.

Columns and labels:
human p38α MAPK = human p38α MAPK (Homo sapiens (Human), UniProt Q16539); assay: Kinase assay, concentration dependent inhibition of p38α MAPK; type: biochemical; conditions: for Ki: kinetic analyses
CK-1δ = CK-1δ (Homo sapiens (Human), UniProt P48730); assay: Kinase assay, concentration dependent inhibition of CK-1δ
Chain of CK-1δ (P48730 whole entry): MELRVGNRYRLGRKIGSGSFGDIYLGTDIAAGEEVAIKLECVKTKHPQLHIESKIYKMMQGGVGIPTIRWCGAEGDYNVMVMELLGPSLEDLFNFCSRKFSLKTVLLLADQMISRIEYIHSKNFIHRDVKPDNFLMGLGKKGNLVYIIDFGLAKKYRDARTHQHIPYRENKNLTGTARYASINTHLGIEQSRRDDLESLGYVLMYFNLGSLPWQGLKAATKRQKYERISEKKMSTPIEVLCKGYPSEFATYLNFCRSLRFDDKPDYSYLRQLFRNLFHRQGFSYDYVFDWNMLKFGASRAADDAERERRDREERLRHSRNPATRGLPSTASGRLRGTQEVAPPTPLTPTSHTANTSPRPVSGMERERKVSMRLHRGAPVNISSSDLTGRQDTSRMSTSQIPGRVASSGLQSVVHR

Chain of human p38α MAPK (Q16539 whole entry): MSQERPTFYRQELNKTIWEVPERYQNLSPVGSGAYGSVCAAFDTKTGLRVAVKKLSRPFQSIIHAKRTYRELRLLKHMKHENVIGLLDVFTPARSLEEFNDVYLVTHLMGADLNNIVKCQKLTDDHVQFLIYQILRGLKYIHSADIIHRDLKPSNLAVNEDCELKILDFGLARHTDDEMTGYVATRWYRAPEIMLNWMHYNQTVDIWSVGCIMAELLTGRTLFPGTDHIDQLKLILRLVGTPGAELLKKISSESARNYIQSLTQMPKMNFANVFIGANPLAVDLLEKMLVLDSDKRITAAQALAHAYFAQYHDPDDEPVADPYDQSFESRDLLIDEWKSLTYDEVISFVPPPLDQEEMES

SMILES | IC50 (human p38α MAPK) | Ki (human p38α MAPK) | IC50 (CK-1δ; read-out: Ck1δ IC50) | IC50 (CK-1δ)
CN1CCN(c2cc(-c3ccncc3)c(-c3cccc4ccccc34)nn2)CC1 [11 (MW-122), 6-(4-methylpiperazin-1-yl)-3-(naphthalen-1-yl)-4-(pyridin-4-yl)pyridazine] | 185 nM | 98 nM | > 10000 nM | 
CN1CCC(c2cc(-c3ccncc3)c(-c3ccc4ccccc4c3)nn2)CC1 [36 (MW-164), 6-(1-methylpiperidin-4-yl)-3-(naphthalen-2-yl)-4-(pyridin-4-yl)pyridazine] | 224 nM | 101 nM |  | 11200 nM
CC(C)Nc1cc(-c2ccncc2)c(-c2ccc3ccccc3c2)nn1 [26 (MW-025), N-isopropyl-6-(naphthalen-2-yl)-5-(pyridin-4-yl)pyridazin-3-amine] | 130 nM |  | 2620 nM | 
CN(C)c1cc(-c2ccncc2)c(-c2cc(F)cc3cccnc23)nn1 [21 (MW-165), 6-(6-fluoroquinolin-8-yl)-N,N-dimethyl-5-(pyridin-4-yl)pyridazin-3-amine] | > 1600 nM |  |  | 
CN(C)c1cnc(-c2cccc3ccccc23)c(-c2ccncc2)n1 [44 (MW-064), N,N-dimethyl-5-(naphthalen-1-yl)-6-(pyridin-4-yl)pyrazin-2-amine] | 456 nM | 343 nM | > 10000 nM | 
c1ccc2cc(-c3nnc(NC4CC4)cc3-c3ccncc3)ccc2c1 [35 (MW-153), N-cyclopropyl-6-(naphthalen-2-yl)-5-(pyridin-4-yl)pyridazin-3-amine] | 189 nM |  |  | 
CN1CCN(c2cc(-c3ccncc3)c(-c3ccc4cccc(F)c4c3)nn2)CC1 [52 (MW-032), 3-(8-Fluoronaphthalen-2-yl)-6-(4-methylpiperazin-1-yl)-4-(pyridin-4-yl)pyridazine] | 735 nM |  | 17900 nM | 
CNc1cc(-c2ccncc2)c(-c2cccc3ccccc23)nn1 [15 (MW-156), N-methyl-6-(naphthalen-1-yl)-5-(pyridin-4-yl)pyridazin-3-amine] | 289 nM | 276 nM | > 10000 nM | 
CNc1cc(-c2ccncc2)c(-c2ccc3ccccc3c2)nn1 [16 (MW-200), N-methyl-6-(naphthalen-2-yl)-5-(pyridin-4-yl)pyridazin-3-amine] | 175 nM | 100 nM | 4980 nM | 
CCCN(C)c1cc(-c2ccncc2)c(-c2cccc3ccccc23)nn1 [24 (MW-010), N-methyl-6-(naphthalen-1-yl)-N-propyl-5-(pyridin-4-yl)pyridazin-3-amine] | 188 nM |  |  | > 10000 nM
CCN(CC)c1cc(-c2ccncc2)c(-c2cccc3ccccc23)nn1 [23 (MW-033), N,N-diethyl-6-(naphthalen-1-yl)-5-(pyridin-4-yl)pyridazin-3-amine] | 162 nM |  | > 10000 nM | 
c1cc(-c2nnc(N3CCNCC3)cc2-c2ccncc2)c2cc[nH]c2c1 [30 (MW-126), 4-(6-(piperazin-1-yl)-4-(pyridin-4-yl)pyridazin-3-yl)-1H-indole] | 753 nM |  | 2630 nM | 
CN1CCN(c2cc(-c3ccncc3)c(-c3cccc4c(F)cccc34)nn2)CC1 [55 (MW-063), 3-(5-fluoronaphthalen-1-yl)-6-(4-methylpiperazin-1-yl)-4-(pyridin-4-yl)pyridazine] | 526 nM |  | 32500 nM | 
CN1CCN(c2cc(-c3ccncc3F)c(-c3cccc4ccccc34)nn2)CC1 [14 (MW-109), 4-(3-fluoropyridin-4-yl)-6-(4-methylpiperazin-1-yl)-3-(naphthalen-1-yl)pyridazine] | 131 nM |  | > 10000 nM | 
CC(C)Nc1cc(-c2ccncc2)c(-c2cccc3ccccc23)nn1 [25 (MW-031), N-isopropyl-6-(naphthalen-1-yl)-5-(pyridin-4-yl)pyridazin-3-amine] | 162 nM |  | > 10000 nM | 
CN(C)c1cc(-c2ccncc2)c(-c2ccc(F)c3ccccc23)nn1 [17 (MW-078), 6-(4-fluoronaphthalen-1-yl)-N,N-dimethyl-5-(pyridin-4-yl)pyridazin-3-amine] | 1780 nM |  | > 10000 nM | 
CN1CCN(c2cc(-c3ccncc3)c(-c3ccc4ccc(F)cc4c3)nn2)CC1 [50 (MW-017), 3-(7-Fluoronaphthalen-2-yl)-6-(4-methylpiperazin-1-yl)-4-(pyridin-4-yl)pyridazine] | 974 nM |  | 16800 nM | 
CN1CCN(c2cc(-c3ccncc3F)c(-c3ccc4ccccc4c3)nn2)CC1 [37 (MW-149), 4-(3-fluoropyridin-4-yl)-6-(4-methylpiperazin-1-yl)-3-(naphthalen-2-yl)pyridazine] | 235 nM |  | 4620 nM | 
Fc1cnccc1-c1cc(C2CC2)nnc1-c1ccc2ccccc2c1 [10 (MW-167), 6-Cyclopropyl-4-(3-fluoropyridin-4-yl)-3-(naphthalen-2-yl)pyridazine] | 307 nM | 86 nM | > 10000 nM | 
CN1CCN(c2cc(-c3ccncc3)c(-c3cccc4cc(F)ccc34)nn2)CC1 [54 (MW-197), 3-(6-fluoronaphthalen-1-yl)-6-(4-methylpiperazin-1-yl)-4-(pyridin-4-yl)pyridazine] | 669 nM |  | 136000 nM | 
c1ccc2c(-c3nnc(N4CCCCC4)cc3-c3ccncc3)cccc2c1 [12 (MW-124), 3-(naphthalen-1-yl)-6-(piperidin-1-yl)-4-(pyridin-4-yl)pyridazine] | 191 nM |  | > 10000 nM | 
c1ccc2c(-c3nnc(NC4CC4)cc3-c3ccncc3)cccc2c1 [13 (MW-107), N-cyclopropyl-6-(naphthalen-1-yl)-5-(pyridin-4-yl)pyridazin-3-amine] | 264 nM | 91 nM | > 10000 nM | 
CN(C)c1cc(-c2ccncc2)c(-c2cccc3cnccc23)nn1 [20 (MW-082), 6-(isoquinolin-5-yl)-N,N-dimethyl-5-(pyridin-4-yl)pyridazin-3-amine] | > 3200 nM |  | > 10000 nM | 
CN1CCN(c2cc(-c3ccncc3)c(-c3cc(F)cc4ccccc34)nn2)CC1 [53 (MW-059), 3-(3-fluoronaphthalen-1-yl)-6-(4-methylpiperazin-1-yl)-4-(pyridin-4-yl)pyridazine] | > 20000 nM |  | 119000 nM | 
CN(C)c1cc(-c2ccncc2)c(-c2cccc3ccc(F)cc23)nn1 [18 (MW-085), 6-(7-fluoronaphthalen-1-yl)-N,N-dimethyl-5-(pyridin-4-yl)pyridazin-3-amine] | 1170 nM |  |  | 
CCN1CCN(c2cc(-c3ccncc3)c(-c3ccc4ccccc4c3)nn2)CC1 [62 (MW-026), 6-(4-ethylpiperazin-1-yl)-3-(naphthalen-2-yl)-4-(pyridin-4-yl)pyridazine] | 520 nM |  | 4990 nM | 
c1ccc2cc(-c3nnc(N4CCOCC4)cc3-c3ccncc3)ccc2c1 [33 (MW-152), 4-(6-(naphthalen-2-yl)-5-(pyridin-4-yl)pyridazin-3-yl)morpholine] | 481 nM |  |  | 
COc1ccc2ccccc2c1-c1nnc(N(C)C)cc1-c1ccncc1 [19 (MW-155), 6-(2-methoxynaphthalen-1-yl)-N,N-dimethyl-5-(pyridin-4-yl)pyridazin-3-amine] | > 1600 nM |  |  | 
CN(C)c1cc(-c2ccncc2)c(-c2ccc3[nH]ccc3c2)nn1 [22 (MW-066), 6-(1H-indol-5-yl)-N,N-dimethyl-5-(pyridin-4-yl)pyridazin-3-amine] | 369 nM |  | 4280 nM | 
